Data taken from patent EP4741391A1, “NMT INHIBITOR, AND PREPARATION METHOD THEREFOR AND USE THEREOF” (Nanjing Synnocare Pharmaceutical Technology Co., Ltd., priority 2023, dated 2025).

Assays:
MV-4-11 cells = test: Anti-proliferative activity against MV-4-11 cells (three-day cell viability chemiluminescence); type: cell-based; conditions: MV-4-11 human monocytic leukemia cells, three days of exposure
Experimental: This study utilized a cell proliferation assay to analyze the cytotoxicity of MV-4-11 human monocytic leukemia cells after three days of exposure to NMT1 inhibitors. The MV-4-11 cell line was purchased from Nanjing Cobuilder Biotechnology Co., Ltd., and cultured in IMDM medium (Viva cell) in an incubator (Thermo) at 37 °C with 5% CO2. In this experiment, NMT1 inhibitors were dissolved in DMSO to obtain 600 µM stock solutions. Dose-response solutions were prepared with a top endpoint compound concentration of 3 µM, followed by three-fold serial dilutions in DMSO, totaling eight data points. The final concentration of DMSO was 0.5%.
MV-4-11 cells were seeded into a white 96-well plate, 80 µL of cell suspension per well, containing 6000 MV-4-11 cells. The cell plate was placed in the CO2 incubator for overnight culture. Then, 20 µL of NMT1 inhibitor solutions at different concentrations were added to the wells. The 96-well plate was placed back into the incubator for three days. Another cell plate was prepared, and the signal was read on the day of drug addition to serve as the maximum value (Max value in the equation below) for data analysis. To this cell plate, 25 µL of cell viability chemiluminescence detection reagent was added per well, followed by incubation at room temperature for 10 minutes to stabilize the luminescence signal. A multi-label analyzer was used for reading.
The raw data were converted into inhibition rates using the equation (Sample - Min) / (Max - Min) * 100%. The IC50 values were then determined by fitting a four-parameter curve (using the "log(inhibitor) vs. response - Variable slope" model in GraphPad Prism). Min: wells treated with 0.5% DMSO; Max: Day 0 wells. Table 1 provides the inhibitory activity of the compounds of the invention on MV-4-11 cell proliferation. Table 1: Compound Inhibitory Activity against NMT1 Enzyme (IC50) and Anti-proliferative Activity against MV-4-11 Cells (IC50)

NMT1 enzyme = target: T1, NMT1 enzyme (Homo sapiens, UniProt P30419); test: Inhibitory activity on NMT1 enzyme catalysis (fluorescence intensity, CPM probe); type: biochemical; conditions: 6 nM NMT1 enzyme, 1.25 µM myristoyl-CoA, 20 µM HSPP60 SRC peptide, 45 minutes at 25 °C
T1 sequence (P30419 1-496): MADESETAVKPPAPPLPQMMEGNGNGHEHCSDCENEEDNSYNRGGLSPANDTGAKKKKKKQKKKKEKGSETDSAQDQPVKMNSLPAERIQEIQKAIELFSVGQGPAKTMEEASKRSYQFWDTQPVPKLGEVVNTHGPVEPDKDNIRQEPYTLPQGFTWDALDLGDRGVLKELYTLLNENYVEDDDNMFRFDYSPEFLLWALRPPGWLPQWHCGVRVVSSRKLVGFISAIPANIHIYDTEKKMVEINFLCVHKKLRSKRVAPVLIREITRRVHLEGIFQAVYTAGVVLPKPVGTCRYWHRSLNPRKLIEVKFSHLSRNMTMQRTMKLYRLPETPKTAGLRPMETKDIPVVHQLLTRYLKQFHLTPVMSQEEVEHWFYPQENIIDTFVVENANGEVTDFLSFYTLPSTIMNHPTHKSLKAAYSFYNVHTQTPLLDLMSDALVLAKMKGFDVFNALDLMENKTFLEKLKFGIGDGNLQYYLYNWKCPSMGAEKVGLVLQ
Experimental: This study evaluated the ability of the compounds of the invention to inhibit NMT1 catalytic activity in vitro. The experiment used a FI (Fluorescence Intensity) analysis method, characterizing NMT1 inhibitors under conditions of 1.25 µM myristoyl-CoA (Lithium salt, Sigma, M4414). In this experiment, a synthesized peptide with the sequence H-Gly-Ser-Asn-Lys-Ser-Lys-Pro-Lys-NH2, HSPP60SRC (Nanjing Peptide Industry, NJP23953), was used as the reaction substrate. The final concentration of the NMT1 enzyme was 6 nM, the final concentration of CPM (Reactive thiol fluorescence probe, Invitrogen, D346) was 1 µM, the final concentration of HSPP60 SRC was 20 µM, and the final concentration of DMSO was 0.5%.
Compounds were dissolved in DMSO to obtain 10 mM stock solutions. Dose-response solutions were prepared with a top endpoint compound concentration of 3 mM, followed by three-fold serial dilutions in DMSO, totaling ten data points. Using an ECHO acoustic liquid handler (BECKMAN, ECHO 655 system), 0.05 µL of the diluted compound solutions was transferred to a 384-well assay plate (Corning, CLS4514). Then, 2.5 µL of the NMT1 enzyme working solution was added to the 384-well assay plate, followed by incubation at 25 °C for 10 minutes. Subsequently, 5 µL of the CPM and myristoyl-CoA working solution was added, the plate was centrifuged at 1000 rpm for 1 minute, and then 2.5 µL of the HSPP60 SRC working solution was added to initiate the reaction. The reaction was incubated at 25 °C for 45 minutes. The FI signal ([…]; ex: 405 nm) was detected using an HTS high-throughput screening multifunctional microplate reader (BMG, PHERA star FSX).
The inhibition rate of the compounds on NMT1 enzyme catalytic activity was calculated using the following formula: Inhibition Percentage (%) = 100 * (Mean of DMSO group - Mean of Compound group) / (Mean of DMSO group - Mean of Blank control group). The IC50 curve of the compounds was fitted using the software XLfit 5.5.0 according to the nonlinear regression equation. Table 1 provides the inhibitory activity of the compounds of the invention on NMT1 enzyme catalysis.

| IC50 (MV-4-11 cells; Homo sapiens, MV4-11, 72 h) | IC50 (NMT1 enzyme) | IC50 (MV-4-11 cells) | SMILES |
| --- | --- | --- | --- |
| 30.2 nM | 2.89 nM |  | Cc1c(CCOc2ccc(F)cc2-c2ccn3ncc(CN(C)C)c3c2)c(C(=O)N(C)C)nn1C [Compound 6, 4-{2-[(2-{3-[(dimethylamino)methyl]pyrazolo[1,5-a]pyridin-5-yl}-4-fluorophenyl)oxy]ethyl}-1,5,N,N-tetrameth ylpyrazole-3-carboxamide] |
| 19.4 nM | 2.1 nM |  | Cc1c(CCOc2c(-c3ccn4ncc(CN(C)C)c4c3)ccc(F)c2F)c(C(=O)N(C)C)nn1C [Compound 7, 4-{2-[(6-{3-[(dimethylamino)methyl]pyrazolo[1,5-a]pyridin-5-yl}-2,3-difluorophenyl)oxy]ethyl}-1,5,N,N-tetram ethylpyrazole-3-carboxamide] |
| 28.4 nM | 2.89 nM |  | Cc1c(CCOc2c(-c3ccn4ncc(CN(C)C)c4c3)ccc(Cl)c2F)c(C(=O)N(C)C)nn1C [Compound 8, 4-{2-[(3-chloro-6-{3-[(dimethylamino)methyl]pyrazolo[1,5-a]pyridin-5-yl}-2-fluorophenyl)oxy]ethyl}-1,5,N,N-tetramethylpyrazole-3-carboxamide] |
| 32.5 nM | 3.68 nM |  | Cc1c(CCOc2c(-c3ccn4ncc(CN(C)C)c4c3)ccc(Cl)c2Cl)c(C(=O)N(C)C)nn1C [Compound 9, 4-{2-[(2,3-dichloro-6-{3-[(dimethylamino)methyl]pyrazolo[1,5-a]pyridin-5-yl}phenyl)oxy]ethyl}-1,5,N,N-tetra methylpyrazole-3-carboxamide] |
| 26.4 nM | 2.59 nM |  | Cc1c(CCOc2c(F)cc(F)cc2-c2ccn3ncc(CN(C)C)c3c2)c(C(=O)N(C)C)nn1C [Compound 10, 4-{2-[(6-{3-[(dimethylamino)methyl]pyrazolo[1,5-a]pyridin-5-yl}-2,4-difluorophenyl)oxy]ethyl}-1,5,N,N-tetram ethylpyrazole-3-carboxamide] |
| 58.7 nM | 6.31 nM |  | Cc1c(COc2cc(Cl)ccc2-c2ccn3ncc(CN(C)C)c3c2)c(C(=O)N(C)C)nn1C [Compound 11, 4-{[(5-chloro-2-{3-[(dimethylamino)methyl]pyrazolo[1,5-a]pyridin-5-yl}phenyl)oxy]methyl}-1,5,N,N-tetrameth ylpyrazole-3-carboxamide] |
| 31.7 nM | 3.67 nM |  | Cc1c(CCOc2cc(Cl)ccc2-c2ccn3ncc(CN(C)C)c3c2)c(CO)nn1C [Compound 12, (4-{2-[(5-chloro-2-{3-[(dimethylamino)methyl]-pyrazolo [1,5-a]pyridin-5-yl}phenyl)oxy]ethyl}-1,5-dimethylpyrazol-3-yl)methanol] |
| 23.2 nM | 2.79 nM |  | Cc1c(CCOc2cc(Cl)ccc2-c2ccn3ncc(CN(C)C)c3c2)c(C#N)nn1C [Compound 13, 4-{2-[(5-chloro-2-{3-[(dimethylamino)methyl]pyrazolo[1,5-a]pyridin-5-yl}phenyl)oxy]ethyl}-1,5-dimethylpyrazole-3-carbonitrile] |
| 18.4 nM | 1.98 nM |  | Cc1nn(C)c(C)c1CCOc1cc(Cl)ccc1-c1ccn2ncc(CN(C)C)c2c1 [Compound 14, 5-(4-chloro-2-{[2-(1,3,5-trimethylpyrazol-4-yl)ethyl]oxy}phenyl)-3-[(dimethylamino)methyl]pyrazolo[1,5-a]pyridine] |
| 20.7 nM | 2.34 nM |  | CCc1nn(C)c(C)c1CCOc1cc(Cl)ccc1-c1ccn2ncc(CN(C)C)c2c1 [Compound 15, 5-(4-chloro-2-{[2-(3-ethyl-1,5-dimethylpyrazol-4-yl)ethyl]oxy}phenyl)-3-[(dimethylamino)methyl]pyrazolo[1,5-a]pyridine] |
| 41.8 nM | 5.32 nM |  | Cc1c(CCOc2cc(Cl)ccc2-c2ccn3ncc(CN(C)C)c3c2)c(C(N)=O)nn1C [Compound 16, 4-{2-[(5-chloro-2-{3-[(dimethylamino)methyl]pyrazolo[1,5-a]pyridin-5-yl}phenyl)oxy]ethyl}-1,5-dimethylpyrazole-3-carboxamide] |
| 25.8 nM | 2.38 nM |  | CNC(=O)c1nn(C)c(C)c1CCOc1cc(Cl)ccc1-c1ccn2ncc(CN(C)C)c2c1 [Compound 17, 4-{2-[(5-chloro-2-{3-[(dimethylamino)methyl]pyrazolo[1,5-a]pyridin-5-yl}phenyl)oxy]ethyl}-1,5,N-trimethylp yrazole-3-carboxamide] |
| 30.2 nM | 2.97 nM |  | CCNC(=O)c1nn(C)c(C)c1CCOc1cc(Cl)ccc1-c1ccn2ncc(CN(C)C)c2c1 [Compound 18, 4-{2-[(5-chloro-2-{3-[(dimethylamino)methyl]pyrazolo[1,5-a]pyridin-5-yl}phenyl)oxy]ethyl}-N-ethyl-1,5-dime thylpyrazole-3-carboxamide] |
| 29.8 nM | 3.21 nM |  | CCN(C)C(=O)c1nn(C)c(C)c1CCOc1cc(Cl)ccc1-c1ccn2ncc(CN(C)C)c2c1 [Compound 19, 4-{2-[(5-chloro-2-{3-[(dimethylamino)methyl]pyrazolo[1,5-a]pyridin-5-yl}phenyl)oxy]ethyl}-N-ethyl-1,5,N-tri methylpyrazole-3-carboxamide] |
| 23.5 nM | 2.76 nM |  | CCN(CC)C(=O)c1nn(C)c(C)c1CCOc1cc(Cl)ccc1-c1ccn2ncc(CN(C)C)c2c1 [Compound 20, 4-{2-[(5-chloro-2-{3-[(dimethylamino)methyl]pyrazolo[1,5-a]pyridin-5-yl}phenyl)oxy]ethyl}-N,N-diethyl-1,5-dimethylpyrazole-3-carboxamide] |
| < 10 nM | 1.61 nM | 5.91 nM | CNCc1cnn2ccc(-c3ccc(F)c(F)c3OCCc3c(C(=O)N(C)C)nn(C)c3C)cc12 [Compound 21, 4-{2-[(2,3-difluoro-6-{3-[(methylamino)methyl]pyrazolo[1,5-a]pyridin-5-y 1}phenyl)oxy]ethyl}-1,5,N,N-tetramet hylpyrazole-3-carboxamide] |
| 10.6 nM | 1.89 nM |  | CNCc1cnn2ccc(-c3ccc(F)c(F)c3OCCc3c(C(=O)NC)nn(C)c3C)cc12 [Compound 22, 4-{2-[(2,3-difluoro-6-{3-[(methylamino)methyl]pyrazolo[1,5-a]pyridin-5-yl}phenyl)oxy]ethyl}-1,5,N-trimethylp yrazole-3-carboxamide] |
| 19.4 nM | 2.57 nM |  | CNCc1cnn2ccc(-c3ccc(F)c(F)c3OCCc3c(C)nn(C)c3C)cc12 [Compound 23, 5-(3,4-difluoro-2-{[2-(1,3,5-trimethylpyrazol-4-yl)ethyl]oxy}phenyl)-3-[(methylamino)methyl]pyrazolo[1,5-a]py ridine] |
